Data on nine molecules can be found in PubChem BioAssay (NCI).

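The compound was tested at five concentrations on cells cultured in 96-well plates, with a 48-hour exposure period. At the TGI there is no net growth.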

What all share (experiment): NCI tumour cell line growth inhibition, 48 h
Assay [1] deals with IGROV1 ovarian.
For assay [2], the system named is SR leukemia.
Assay [3] concerns HCT-15 colon.
The subject of assay [4] is TK-10 renal.
In assay [5] the test system is DU-145 prostate.
Assay [6] relates to A549 NSCLC.
Assay [7] relates to HCT-116 colon.
In assay [8] the test system is T-47D breast.
The subject of assay [9] is NCI-H522 lung.
In assay [10] the test system is SK-OV-3 ovarian.
Assay [11] has as its system CCRF-CEM leukemia.
Assay [12] concerns OVCAR-5 ovarian.
For assay [13], the system named is A498 renal.
The subject of assay [14] is SF-268 CNS.
The subject of assay [15] is RPMI-8226 leukemia.

With `CC1(C)CC(=O)/C(=C/C2CCNC2=S)C(=O)N1` (stereo not drawn), the TGI in assay [1], in assay [2], in [3], in assay [4], in assay [5] and in assay [6] was over 100 µM in each case. Besides, the TGI in assay [7], in assay [8], in assay [9], in assay [10], in assay [11] and in assay [12] was over 100 µM in each case. Also, the TGI in [13], in [14] and in assay [15] was over 100 µM each time.
Regarding `COc1cc(O)c2c(=O)c(OC)c(-c3ccc4c(c3)OCO4)oc2c1`, the TGI in assay [1], in [2], in assay [3], in [4], in assay [5] and in assay [6] was over 100 µM throughout. The TGI is over 100 µM in assay [7]; over 100 µM in [8]; over 100 µM in assay [9]; 81 µM in [10]; over 100 µM in [11]; over 100 µM in [12]. The TGI was over 89.3 µM in assay [13], 40 µM in assay [14] and over 100 µM in assay [15].
In the case of `CN1CCC(CNC(=O)CCCCCCCCC(=O)NCC2(c3ccccc3)CCN(C)CC2)(c2ccccc2)CC1`, the TGI in [1], in assay [2], in assay [3], in assay [4], in [5] and in assay [6] was over 100 µM each time. In addition, the TGI in [7], in [8], in assay [9], in [10], in assay [11] and in [12] was over 100 µM in each case. In addition, the values for the TGI in assay [13], in assay [14] and in [15] were over 100 µM, 57.6 µM and over 100 µM, respectively.
Take `O=C(c1ccco1)C1CC(c2ccc3ccccc3c2O)=NN1` (stereo not drawn): the TGI in [1], in assay [2], in assay [3], in assay [4], in assay [5] and in assay [6] was over 100 µM throughout. In addition, the TGI in assay [7], in [8], in [9], in assay [10], in [11] and in assay [12] was over 100 µM each time. The TGI in assay [13], in assay [14] and in [15] was over 100 µM each time.
Take `C/C(=N/NC(=O)c1ccncc1)c1ccc(NC(=O)C(=O)Nn2c(=S)[nH]c3ccccc3c2=O)cc1`: the TGI in assay [1], in assay [2], in [3], in [4], in [5] and in assay [6] was over 100 µM throughout. For the same molecule, the TGI in assay [7], in [8], in [9], in assay [10], in [11] and in [12] was over 100 µM each time. Also, the TGI in assay [13], in assay [14] and in [15] was over 100 µM in each case.
For `COC(=O)C1=C(OC(=O)/C(=C/c2ccc(Cl)cc2Cl)c2ccc(Cl)cc2Cl)C(C(=O)OC)[C@@]2(O)[C@@H](C(=O)OC)[C@H](C)C[C@@H]1[C@@H]2C(=O)OC` (stereo partly drawn), the TGI in assay [1], in [2], in assay [3], in assay [4], in [5] and in assay [6] was over 100 µM in each case. The TGI in assay [7], in assay [8], in [9], in assay [10], in assay [11] and in assay [12] was over 100 µM in each case. The TGI in assay [13], in assay [14] and in assay [15] was over 100 µM throughout.
Turning to `O=C1CSC(/C=C/c2ccccc2)N1c1ccc(-c2ccc(-n3c(-c4ccccc4)nc4ccccc4c3=O)cc2)cc1` (stereo not drawn), the TGI in [1] is 75.6 µM; in assay [2] it was over 100 µM; in [3], 66.8 µM; in assay [4] it was over 100 µM; in assay [5] it was over 100 µM; in assay [6], 68 µM. Moreover, the TGI in assay [8] was over 100 µM; in assay [9], 42.9 µM; in assay [10], over 100 µM; in assay [11], 64.5 µM; in assay [12], 41.6 µM; in assay [13], over 100 µM. In addition, the TGI in [14] and in assay [15] was over 100 µM each time.
Consider `CCOc1cc(-c2nc3ccccn3c2/N=C/c2cc([N+](=O)[O-])cc([N+](=O)[O-])c2O)ccc1O`, for which the TGI in assay [1], in assay [2], in assay [3], in assay [4], in assay [5] and in assay [6] was over 100 µM each time. Besides, the TGI in [7], in assay [8], in [9], in assay [10], in assay [11] and in assay [12] was over 100 µM each time. For the same molecule, the TGI in assay [13], in [14] and in assay [15] was over 100 µM throughout.
Consider `CCCCC1Cc2ccccc2-c2n1c1ccccc1[n+]2C` (stereo not drawn), for which the TGI was over 100 µM in assay [1]; 58.5 µM in [2]; over 100 µM in assay [3]; over 100 µM in [4]; over 100 µM in assay [5]; over 100 µM in [7]. Moreover, the TGI in [8] was 7.3 µM; in assay [9] it was 27.9 µM; in assay [10], over 100 µM; in [11], over 100 µM; in [12], over 100 µM; in assay [13] it was over 100 µM. Moreover, the TGI in assay [14] was over 100 µM; in assay [15], 14 µM.
